The test has as its system CellSensor T-REx NICD CSL-bla HeLa cell line (Notch response element driving beta-lactamase reporter). Briefly: Notch assay (CSL-bla beta-lactamase reporter, DOX-inducible NICD). It counts as cell-based. Particulars: Homo sapiens; 10 μM compound; HeLa/T-REx NICD CSL-bla cells, doxycycline-induced, 16-20 hours incubation; blue/green emission ratio. Here is the method: We used the CellSensor T-REx™ NICD CSL-bla HeLa cell line, which was engineered by lentiviral transduction of HeLa cells with a Notch response element driving beta-lactamase reporter gene expression (CSL-bla) along with DOX (doxycycline)-inducible NICD (Notch intracellular domain) constructs. Addition of DOX to these cells allows for regulated NICD transcription factor expression and subsequent beta-lactamase expression.
Specifically, the following protocol was used.
• 1. Plate Cells: 32 μL/well of HeLa/T-REx™ NICD CSL-bla cells at 10^3 cells/well complete medium into 384-well plate. • 2. Prepare 10× compounds in assay medium. • 3. Add 4 μL compounds or 1% DMSO in assay medium to the cells. • 4. Add 4 μL 10× Doxycycline in Assay Medium to the treated wells, and 4 μL Assay Medium to the Untreated and cell free control wells. • 5. Incubate the assay plate in a humidified 37° C./5% CO2 incubator for 16-20 hours. • 6. Preparation of 6× LiveBLAzer™-FRET B/G Substrate (CCF4-AM) Mixture according to the manual and cell loading should be done in the absence of direct strong lighting. • 7. Remove assay plate from the humidified 37° C./5% CO2 incubator. Add 8 μl of 6× Substrate Mixture from […] to each well. Cover the plate to protect it from light and evaporation. Incubate at room temperature for 4 hours. • 8. Reading an Assay Plate using the following filter selections:
• 9. Data analysis: Use the assay plate layout to identify the location of the Cell-free wells. These control wells are used for background subtraction. Determine the average emission from the Cell-free wells at both 460 nm (Average Blue Background) and 530 nm (Average Green Background). Subtract the Average Blue Background (data collected at 460 nm) from all of the blue emission data. Subtract the Average Green background (data collected at 530 nm) from all of the green emission data. Calculate the Blue/Green Emission Ratio for each well, by dividing the background-subtracted blue emission values by the background-subtracted green emission values.
Turning to `CC(C)[C@@H]1CN2C(=O)CCN(C(=O)NCc3ccccc3)C2CN(Cc2ccc3ccccc3c2)C1=O` (stereo partly drawn) [ID-01, (7R)—N-benzyl-7-isopropyl-9-(naphthalen-2-ylmethyl)-4,8-dioxooctahydropyrimido[1,2-a][1,4]diazepine-1(2H)-carboxamide], the inhibition (commonly the drop in the measured response relative to a control, in per cent) at 10 µM turned out to be 54.7%.

`C[C@@H]1CN2C(=O)CCN(C(=O)NCc3cccc4ccccc34)C2CN(CC2CCCCC2)C1=O` (stereo partly drawn) [ID-03, (7R)-9-(cyclohexylmethyl)-7-methyl-N-(naphthalen-1-ylmethyl)-4,8-dioxooctahydropyrimido[1,2-a][1,4]diazepine-1(2H)-carboxamide]: the inhibition at 10 µM worked out at 53.4%. For `CCCCN1CC2N(C[C@@H](Cc3ccccc3)C1=O)C(=O)CCN2C(=O)NCCC(c1ccccc1)c1ccccc1` (stereo partly drawn) [ID-04, (7R)-7-benzyl-9-butyl-N-(3,3-diphenylpropyl)-4,8-dioxooctahydropyrimido[1,2-a][1,4]diazepine-1(2H)-carboxamide], the inhibition at 10 µM is 54.7%. The result for `CC(C)CCN1CC2N(C[C@@H](Cc3ccc(O)cc3)C1=O)C(=O)CCN2C(=O)NCCC(c1ccccc1)c1ccccc1` (stereo partly drawn) [ID-05, (7R)—N-(3,3-diphenylpropyl)-7-(4-hydroxybenzyl)-9-isopentyl-4,8-dioxooctahydropyrimido[1,2-a][1,4]diazepine-1(2H)-carboxamide] reads 51.5%.

With `CC(C)CCN1CC2N(C[C@@H](Cc3ccccc3)C1=O)C(=O)CCN2C(=O)NCCC(c1ccccc1)c1ccccc1` (stereo partly drawn) [ID-06, (7R)-7-benzyl-N-(3,3-diphenylpropyl)-9-isopentyl-4,8-dioxooctahydropyrimido[1,2-a][1,4]diazepine-1(2H)-carboxamide], the inhibition at 10 µM came out at 51.8%. With `O=C1[C@H](Cc2ccccc2)CN2C(=O)CCN(C(=O)NCCC(c3ccccc3)c3ccccc3)C2CN1CC1CCCCC1` (stereo partly drawn) [ID-07, (7R)-7-benzyl-9-(cyclohexylmethyl)-N-(3,3-diphenylpropyl)-4,8-dioxooctahydropyrimido[1,2-a][1,4]diazepine-1(2H)-carboxamide], the inhibition at 10 µM stood at 54.7%.

In the case of `O=C1[C@H](Cc2ccccc2)CN2C(=O)CCN(C(=O)NCCC(c3ccccc3)c3ccccc3)C2CN1Cc1ccccc1` (stereo partly drawn) [ID-08, (7R)-7,9-dibenzyl-N-(3,3-diphenylpropyl)-4,8-dioxooctahydropyrimido[1,2-a][1,4]diazepine-1(2H)-carboxamide], the inhibition at 10 µM was determined as 64.9%. The result for `CC(C)[C@@H]1CN2C(=O)CCN(C(=O)NCCC(c3ccccc3)c3ccccc3)C2CN(CCc2ccccc2)C1=O` (stereo partly drawn) [ID-09, (7R)—N-(3,3-diphenylpropyl)-7-isopropyl-4,8-dioxo-9-phenethyloctahydropyrimido[1,2-a][1,4]diazepine-1(2H)-carboxamide] reads 54.1%; that for `CC(C)C[C@@H]1CN2C(=O)CCN(C(=O)NCCC(c3ccccc3)c3ccccc3)C2CN(CCc2ccccc2)C1=O` (stereo partly drawn) [ID-10, (7R)—N-(3,3-diphenylpropyl)-7-isobutyl-4,8-dioxo-9-phenethyloctahydropyrimido[1,2-a][1,4]diazepine-1(2H)-carboxamide], 50.3%.

Take `O=C1[C@H](Cc2ccc(O)cc2)CN2C(=O)CCN(C(=O)NCCC(c3ccccc3)c3ccccc3)C2CN1CCc1ccccc1` (stereo partly drawn) [ID-11, (7R)—N-(3,3-diphenylpropyl)-7-(4-hydroxybenzyl)-4,8-dioxo-9-phenethyloctahydropyrimido[1,2-a][1,4]diazepine-1(2H)-carboxamide]: the inhibition at 10 µM was found to be 64.1%. Then `O=C1[C@H](Cc2ccccc2)CN2C(=O)CCN(C(=O)NCCC(c3ccccc3)c3ccccc3)C2CN1CCc1ccccc1` (stereo partly drawn) [ID-12, (7R)-7-benzyl-N-(3,3-diphenylpropyl)-4,8-dioxo-9-phenethyloctahydropyrimido[1,2-a][1,4]diazepine-1(2H)-carboxamide], with 51.7%; and `O=C1[C@H](Cc2ccc(O)cc2)CN2C(=O)CCN(C(=O)NCCC(c3ccccc3)c3ccccc3)C2CN1Cc1cccc2cccnc12` (stereo partly drawn) [ID-13, (7R)—N-(3,3-diphenylpropyl)-7-(4-hydroxybenzyl)-4,8-dioxo-9-(quinolin-8-ylmethyl)octahydropyrimido[1,2-a][1,4]diazepine-1(2H)-carboxamide], with 53.7%; and `CC(C)[C@@H]1CN2C(=O)CCN(C(=O)NCCC(c3ccccc3)c3ccccc3)C2CN(Cc2ccc3ccccc3c2)C1=O` (stereo partly drawn) [ID-14, (7R)—N-(3,3-diphenylpropyl)-7-isopropyl-9-(naphthalen-2-ylmethyl)-4,8-dioxooctahydropyrimido[1,2-a][1,4]diazepine-1(2H)-carboxamide], with 62.4%. Regarding `O=C1[C@H](Cc2ccc(O)cc2)CN2C(=O)CCN(C(=O)NCC3CCCCC3)C2CN1Cc1cccc2ccccc12` (stereo partly drawn) [ID-15, (7R)—N-(cyclohexylmethyl)-7-(4-hydroxybenzyl)-9-(naphthalen-1-ylmethyl)-4,8-dioxooctahydropyrimido[1,2-a][1,4]diazepine-1(2H)-carboxamide], the inhibition at 10 µM is 57.5%.

For the compound `O=C1[C@H](Cc2ccccc2)CN2C(=O)CCN(C(=O)NCC3CCCCC3)C2CN1Cc1cccc2ccccc12` (stereo partly drawn) [ID-16, (7R)-7-benzyl-N-(cyclohexylmethyl)-9-(naphthalen-1-ylmethyl)-4,8-dioxooctahydropyrimido[1,2-a][1,4]diazepine-1(2H)-carboxamide], the inhibition at 10 µM stood at 60.2%. Regarding `CC(C)[C@@H]1CN2C(=O)c3sccc3N(C(=O)NCc3ccccc3)C2CN(Cc2ccc3ccccc3c2)C1=O` (stereo partly drawn) [ID-20, (8R)—N-benzyl-8-isopropyl-6-(naphthalen-2-ylmethyl)-7,11-dioxo-4a,5,6,7,8,9-hexahydrothieno[3′,2′:4,5]pyrimido[1,2-a][1,4]diazepine-4(11H)-carboxamide], the inhibition at 10 µM came out at 56.8%. Then `O=C1[C@H](Cc2ccc(O)cc2)CN2C(=O)c3sccc3N(C(=O)NCCc3ccccc3)C2CN1Cc1cccc2ccccc12` (stereo partly drawn) [ID-22, (8R)-8-(4-hydroxybenzyl)-6-(naphthalen-1-ylmethyl)-7,11-dioxo-N-phenethyl-4a,5,6,7,8,9-hexahydrothieno[3′,2′:4,5]pyrimido[1,2-a][1,4]diazepine-4(11H)-carboxamide], with 56.2%; and `O=C1[C@H](Cc2ccccc2)CN2C(=O)c3sccc3N(C(=O)NCCc3ccccc3)C2CN1Cc1cccc2cccnc12` (stereo partly drawn) [ID-23, (8R)-8-benzyl-7,11-dioxo-N-phenethyl-6-(quinolin-8-ylmethyl)-4a,5,6,7,8,9-hexahydrothieno[3′,2′:4,5]pyrimido[1,2-a][1,4]diazepine-4(11H)-carboxamide], with 54.6%; and `CCCCN1CC2N(C[C@@H](CC(C)C)C1=O)C(=O)c1sccc1N2C(=O)NCc1cccc2ccccc12` (stereo partly drawn) [ID-24, (8R)-6-butyl-8-isobutyl-N-(naphthalen-1-ylmethyl)-7,11-dioxo-4a,5,6,7,8,9-hexahydrothieno[3′,2′:4,5]pyrimido[1,2-a][1,4]diazepine-4(11H)-carboxamide], with 51.1%. As for `CC(C)CCN1CC2N(C[C@@H](CC(C)C)C1=O)C(=O)c1sccc1N2C(=O)NCc1cccc2ccccc12` (stereo partly drawn) [ID-25, (8R)-8-isobutyl-6-isopentyl-N-(naphthalen-1-ylmethyl)-7,11-dioxo-4a,5,6,7,8,9-hexahydrothieno[3′,2′:4,5]pyrimido[1,2-a][1,4]diazepine-4(11H)-carboxamide], the inhibition at 10 µM came to 52.8%. Turning to `CC(C)CCN1CC2N(C[C@@H](Cc3ccc(O)cc3)C1=O)C(=O)c1sccc1N2C(=O)NCc1cccc2ccccc12` (stereo partly drawn) [ID-26, (8R)-8-(4-hydroxybenzyl)-6-isopentyl-N-(naphthalen-1-ylmethyl)-7,11-dioxo-4a,5,6,7,8,9-hexahydrothieno[3′,2′:4,5]pyrimido[1,2-a][1,4]diazepine-4(11H)-carboxamide], the inhibition at 10 µM is 61.1%. On to `O=C1[C@H](Cc2ccc(O)cc2)CN2C(=O)c3sccc3N(C(=O)NCc3cccc4ccccc34)C2CN1CC1CCCCC1` (stereo partly drawn) [ID-27, (8R)-6-(cyclohexylmethyl)-8-(4-hydroxybenzyl)-N-(naphthalen-1-ylmethyl)-7,11-dioxo-4a,5,6,7,8,9-hexahydrothieno[3′,2′:4,5]pyrimido[1,2-a][1,4]diazepine-4(11H)-carboxamide], for which the inhibition at 10 µM is 54.4%. As to `C[C@@H]1CN2C(=O)c3sccc3N(C(=O)NCCC(c3ccccc3)c3ccccc3)C2CN(Cc2ccc3ccccc3c2)C1=O` (stereo partly drawn) [ID-29, (8R)—N-(3,3-diphenylpropyl)-8-methyl-6-(naphthalen-2-ylmethyl)-7,11-dioxo-4a,5,6,7,8,9-hexahydrothieno[3′,2′:4,5]pyrimido[1,2-a][1,4]diazepine-4(11H)-carboxamide], the inhibition at 10 µM came to 56.7%.
